Reference: paper PMC4052326, “Alterporriol-Type Dimers from the Mangrove Endophytic Fungus, Alternaria sp. (SK11), and Their MptpB Inhibitions” (Marine Drugs, 2014)

Molecular target: T1, Mycobacterium tuberculosis protein tyrosine phosphatase B (MptpB) (Mycobacterium tuberculosis, UniProt I6WXK4)
T1 construct: The full-length PTPB gene was amplified from genomic DNA of the Mtb H37Rv strain; His6 (N); made in house
Assay: biochemical
Assay type: biochemical
Details: for IC50: MptpB, substrate DiFMUP, average of two independent experiments, sodium orthovanadate as positive control

T1 sequence (I6WXK4 whole entry, looked up): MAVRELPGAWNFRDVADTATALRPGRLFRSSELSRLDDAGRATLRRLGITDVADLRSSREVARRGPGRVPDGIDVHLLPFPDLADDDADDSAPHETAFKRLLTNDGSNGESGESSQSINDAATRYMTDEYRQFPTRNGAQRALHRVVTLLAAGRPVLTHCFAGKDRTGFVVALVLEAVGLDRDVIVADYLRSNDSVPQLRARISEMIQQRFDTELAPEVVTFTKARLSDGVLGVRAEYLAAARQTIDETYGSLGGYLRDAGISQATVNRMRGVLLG

SMILES	IC50	inhibitory activity against MptpB (result in words)
COc1cc(O)c2c(c1O)C(c1cc(O)c3c(c1O)C(=O)C1=C(CC(O)C(C)(O)C1)C3=O)C1CC(C)(O)C(O)C(O)C1C2=O (stereo not shown) [Compound 1, alterporriol S]	64.7 µM	–
COc1cc(O)c2c(c1)C(=O)c1cc(C)c(O)c(-c3c(OC)cc4c(c3O)C(=O)C3=C(C4=O)[C@@H](O)[C@](C)(O)[C@H](O)[C@H]3O)c1C2=O [Compound 2, (+)-aS-alterporriol C]	8.7 µM	strong inhibitory activity
[Na+].[Na+].[Na+].[O]=[V]([O-])([O-])[O-] [Control, sodium orthovanadate, reference compound]	0.05 µM	–
